From patent publication US20100008894A1, “Process of Screening a Molecule as a Candidate Drug for the Treatment of Bipolar Disorder” (Institute pasteur, priority 2005, published 2010)

Legend:
[1] = target: T1, Orn (Escherichia coli, UniProt P0A784); test: Orn activity assay (degradation of RNA-oligo 5mer); assay type: biochemical, E. coli; settings: 10 μM inhibitor; 3 μM 5′Cy5-CCCCC3′ RNA
T1 construct: made in house; host or cells: E. coli MG1655 carrying pUM408, arabinose-induced
Protocol: Custome made RNA-oligo 5mers (5′Cy5-CCCCC3′), obtained from Proligo, were used as substrate for in vitro activity assays. 30 μl reactions containing 50 mM HEPES pH 7.5, 5 mM MnCl2, 3 μM substrate RNA and 0.1 μg oligoribonuclease were incubated at 37° C., and reactions were initiated by adding substrate. Inhibitors were added as indicated in the text. At intervals, 5 μl reaction aliquots were taken and stopped by adding an equal volume of sample buffer (95% formamide, 20 mM EDTA, 0.1% bromphenol blue) and frozen at −20° C. For analysis of the reaction products, samples were heated at 80° C. for 3 minutes and 2.5 μl was applied to PAGE on a 22% SDS-PAA gel containing 2×TBE and run in 2×TBE. Fluorescent RNA oligos were visualized using a Molecular Dynamics STORM 860 in 650-nm long-pass filter mode.
Given the strong affinity of Orn for pAp, it was investigated whether pAp affects Orn activity. […] Those small RNA-oligos are called here nanoRNAs, in order to distinguish them from microRNAs, which have become a subject of extensive studies in the last several years. RNA-oligo 5-mers (5′-CCCCC-3′) labeled at their 5′-phosphate end with the sulfoindocyanine succinimidyl ester cyanine 5 (Cy5) were therefore used as substrate for in vitro assays with purified recombinant Orn. […]

[2] = target: T1, Orn; test: pAp/AMP-binding assay with recombinant Orn; parameters: species or system E. coli; settings: 15 μg protein, 5 μl agarose
Protocol: (§1) 30 μl samples containing 15 μg of Orn-His or CysQ-His in pAp-agarose buffer containing 100 mM NaCl were incubated with 5 μl of prewashed pAp- or AMP-agarose by rotating for 1 hour at 4° C. in durapore spin columns (Millipore). Beads were removed by centrifugation, and 5 μl of the unbound fraction, designated flow through was measured for protein content using Bio-Rad protein assay. The fraction bound to the beads was eluted by the addition of 40 μl of hot SDS-sample buffer and incubation for 15 minutes at 65° C.
(§2) Orn is an essential protein in E. coli involved in mRNA degradation. It has 3′ to 5′ exoribonuclease activity selectively active on short ribonucleotides. 5′adenosine monophosphate (AMP) is known to inhibit Orn (Datta & Niyogi, 1975). It was therefore important to compare binding of Orn to AMP and pAp. To this end recombinant Orn has been purified and its binding was measured to equal amounts of pAp- or AMP-agarose, both affinity substrates with identical binding capacities, CysQ was included as a positive control. Similar experiments were done with cell free extracts from strains overexpressing Orn or CysQ. […] Furthermore, significant amounts of Orn, roughly one third, but not CysQ bind to AMP-agarose. […]

[3] = target: T2, CysQ (Escherichia coli, UniProt P22255); test: pAp/AMP-binding assay with recombinant CysQ; parameters: species or system E. coli; settings: 15 μg protein, 5 μl agarose
T2 construct: made in house; host or cells: E. coli MG1655 carrying pUM404, arabinose-induced
Protocol: as §1, §2

[4] = target: NM23-H2 (Homo sapiens, UniProt P22392); settings: cited from earlier work
[5] = target: T2, CysQ; assay type: biochemical, E. coli
[6] = target: T3, Sfn (Homo sapiens, UniProt Q9Y3B8); test: Sfn-catalyzed degradation of oligo RNA; assay type: biochemical
T3 construct: His tag; made in house
T3 sequence (Q9Y3B8 26-237): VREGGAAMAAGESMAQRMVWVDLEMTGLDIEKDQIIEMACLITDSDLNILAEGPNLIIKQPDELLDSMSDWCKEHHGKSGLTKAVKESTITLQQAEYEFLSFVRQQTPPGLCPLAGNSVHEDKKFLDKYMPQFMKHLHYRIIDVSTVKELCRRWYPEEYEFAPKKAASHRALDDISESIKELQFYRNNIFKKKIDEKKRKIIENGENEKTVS
Protocol: FIG. 9: Sensitivity of Sfn-catalyzed degradation of oligo RNA to pAp. Shown is the quantification of the distribution of reaction products that were separated on 22% PAA gels. Reactions included 0.5 μg Sfn and 3 μM of RNA oligo 5mer (5′Cy5-CCCCC3′). Reactions were started by the addition of enzyme. 20 μM or 50 μM pAp was present where indicated. Closed circle: 5mer, open circle: 4mer, closed triangle: 3mer, open triangle: 2mer, square: 1mer.
The term nanoRNA has been introduced to describe these extremely short RNA oligos. The Inventors have purified His-tagged Sfn in order to evaluate its sensitivity to pAp in-vitro. Inhibition of Sfn-catalyzed degradation of nanoRNA was tested at two concentrations of the inhibitor, 20 and 50 μM.

[7] = target: T3, Sfn; test: Sfn-catalyzed degradation of oligo DNA; assay type: biochemical; settings: 50 μM pAp; DNA oligo 5mer
Protocol: FIG. 10: Sensitivity of Sfn-catalyzed degradation of oligo DNA to pAp. Shown is the quantification of the distribution of reaction products that were separated on 22% PAA gels. Reactions included 3 μg Sfn and 3 μM of DNA oligo 5mer (5′Cy5-CCCCC3′). Reactions were started by the addition of enzyme. 50 μM pAp was present where indicated. Closed circle: 5mer, open circle: 4mer, closed triangle: 3mer, open triangle: 2mer. Monomers could not be included into this calculation due to their inability to enter the gel.

[8] = target: T4, PARP (Homo sapiens, UniProt P09874); test: Colorimetric PARP assay from Trevigen; assay type: biochemical; settings: 1 μM pAp, in vitro
T4 construct: purchased Trevigen
Text: The Inventors plan to verify this effect using an independent method, as they are not certain the effect that can be observed with the kit they used for this experiment (Colorimetric PARP assay from Trevigen) is independent of the nature of the inhibitor, as it seems that the phenomenon of self-inhibition of PARP due to auto modification has an important impact on the result. They plan therefore to measure PARP activity in-vitro in the presence or absence of pAp according to J. C. Ame using ^32P-NAD.

T1 sequence (P0A784 whole entry): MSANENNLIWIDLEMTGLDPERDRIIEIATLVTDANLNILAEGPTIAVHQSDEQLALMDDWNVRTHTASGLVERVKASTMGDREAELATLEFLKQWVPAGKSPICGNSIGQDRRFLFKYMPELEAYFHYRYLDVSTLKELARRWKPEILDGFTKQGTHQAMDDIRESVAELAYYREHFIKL
T2 sequence (P22255 whole entry): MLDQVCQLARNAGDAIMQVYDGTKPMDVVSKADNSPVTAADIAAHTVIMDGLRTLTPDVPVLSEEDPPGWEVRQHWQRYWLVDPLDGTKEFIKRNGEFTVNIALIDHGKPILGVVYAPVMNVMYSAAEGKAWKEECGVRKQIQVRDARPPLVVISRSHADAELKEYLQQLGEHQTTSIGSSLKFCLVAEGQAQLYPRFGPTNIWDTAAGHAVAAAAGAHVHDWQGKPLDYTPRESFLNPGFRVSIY
Sequence of NM23-H2 (P22392 whole entry): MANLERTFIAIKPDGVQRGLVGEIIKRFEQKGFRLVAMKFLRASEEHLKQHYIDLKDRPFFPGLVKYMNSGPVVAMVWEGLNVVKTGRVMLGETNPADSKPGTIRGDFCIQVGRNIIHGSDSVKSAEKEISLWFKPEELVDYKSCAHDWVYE
T4 sequence (P09874 whole entry): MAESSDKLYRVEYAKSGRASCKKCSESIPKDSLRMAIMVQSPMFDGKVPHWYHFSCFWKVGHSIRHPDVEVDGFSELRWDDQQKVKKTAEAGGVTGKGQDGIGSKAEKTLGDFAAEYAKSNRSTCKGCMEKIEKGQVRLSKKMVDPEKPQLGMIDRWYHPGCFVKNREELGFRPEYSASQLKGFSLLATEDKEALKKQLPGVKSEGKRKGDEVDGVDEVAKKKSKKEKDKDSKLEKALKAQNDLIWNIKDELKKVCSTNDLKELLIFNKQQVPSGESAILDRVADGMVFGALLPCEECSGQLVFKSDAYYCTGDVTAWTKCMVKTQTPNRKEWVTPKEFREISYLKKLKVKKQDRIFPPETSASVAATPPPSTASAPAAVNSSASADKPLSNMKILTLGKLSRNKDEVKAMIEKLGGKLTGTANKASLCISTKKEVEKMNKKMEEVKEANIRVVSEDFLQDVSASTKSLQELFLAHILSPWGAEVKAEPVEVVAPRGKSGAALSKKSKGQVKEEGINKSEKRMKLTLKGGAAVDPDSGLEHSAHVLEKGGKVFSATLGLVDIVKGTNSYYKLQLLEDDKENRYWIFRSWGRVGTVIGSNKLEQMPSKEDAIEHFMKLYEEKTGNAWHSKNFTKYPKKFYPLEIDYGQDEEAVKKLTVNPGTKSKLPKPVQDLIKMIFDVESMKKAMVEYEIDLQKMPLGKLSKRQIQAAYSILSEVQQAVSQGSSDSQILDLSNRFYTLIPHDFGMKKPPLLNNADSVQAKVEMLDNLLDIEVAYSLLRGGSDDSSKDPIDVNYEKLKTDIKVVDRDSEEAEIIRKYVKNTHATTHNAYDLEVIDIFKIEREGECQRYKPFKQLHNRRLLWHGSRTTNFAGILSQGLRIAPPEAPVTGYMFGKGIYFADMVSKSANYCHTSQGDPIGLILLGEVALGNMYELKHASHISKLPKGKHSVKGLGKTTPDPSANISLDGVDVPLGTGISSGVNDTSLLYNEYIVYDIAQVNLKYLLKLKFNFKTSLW

## Nc1ncnc2c1ncn2[C@@H]1O[C@H](COP(=O)(O)O)[C@@H](O)[C@H]1O [AMP, 5′adenosine monophosphate]
[1]
  inhibition of degradation of nanoRNA by Orn: inhibiting
[2]
  binding of Orn to nucleotide-agarose: roughly one third
[3]
  binding of CysQ to nucleotide-agarose: not

## Nc1ncnc2c1ncn2[C@@H]1O[C@H](COP(=O)(O)OP(=O)(O)O)[C@@H](O)[C@H]1O [ADP]
[4]
  inhibition of the cleavage reaction (yes/no): not

## [Ca+2].[Cl-].[Cl-] [CaCl2]
[5]; 2 mM CaCl2, in the presence of 200 mM NaCl
  inhibition of CysQ: complete inhibition

## Nc1ncnc2c1ncn2[C@@H]1O[C@H](COP(=O)(O)O)[C@@H](OP(=O)(O)O)[C@H]1O [pAp, 3′-phosphoadenosine 5′-phosphate]
[1]
  inhibition of degradation of nanoRNA by Orn: significantly more pronounced
[6]; 20 μM pAp
  inhibition of Sfn-catalyzed degradation of nanoRNA: Significant inhibition
[6]; 50 μM pAp
  inhibition of Sfn-catalyzed degradation of nanoRNA: increasing inhibition
[7]
  sensitivity of Sfn-catalyzed degradation of DNA oligos: highly sensitive
[8]
  PARP activity: 60%
[2]
  binding of Orn to nucleotide-agarose: almost quantitatively
[3]
  binding of CysQ to nucleotide-agarose: almost quantitatively

## Nc1ncnc2c1ncn2[C@@H]1O[C@H](COP(=O)(O)OP(=O)(O)OP(=O)(O)O)[C@@H](O)[C@H]1O [ATP]
[4]; 0.5 mM
  inhibition of the cleavage reaction: 50%

## [Cl-].[Na+] [sodium, NaCl]
[5]; physiological concentrations, 200 mM NaCl
  inhibition of CysQ by sodium: not inhibitory
